In ChEMBL document CHEMBL1128765, “Growth inhibitory effect of naphthofuran and naphthofuranquinone derivatives on Trypanosoma cruzi epimastigotes” (Bioorg Med Chem Lett, 1995) one finds IC50 and inhibition of growth data, which are given here for 14 molecules.

Assay [1] deals with Trypanosoma cruzi. Kind of assay: In vitro for antitrypanosomal activity against Trypanosoma cruzi epimastigote, SC-28 strain. Type of assay: functional, organism-based.
In assay [2] the test system is Trypanosoma cruzi. Kind of assay: In vitro for antitrypanosomal activity against Trypanosoma cruzi epimastigote, Ystrain. Format: functional, organism-based.
Assay [3] concerns Trypanosoma cruzi. Put plainly: In vitro antitrypanosomal activity against Trypanosoma cruzi epimastigote, CL strain. Format: functional, organism-based.
Assay [4] concerns Trypanosoma cruzi. Put plainly: Percent inhibition of growth against Trypanosoma cruzi epimastigotes, Y strain at concentration 4 ug/ml (13-17 uM). Type of assay: functional. To be noted: read-out: GI.

Usually IC50 stands for the concentration needed to halve the response being measured. Low readings indicate greater potency, high ones weaker potency. `COc1ccc2c(c1)C(=O)c1cc(C(C)O)oc1C2=O` (configuration not stated): the IC50 in the assay with Trypanosoma cruzi [1] is 3050 nM; in the assay on Trypanosoma cruzi [2], 2820 nM; in the assay on Trypanosoma cruzi [3] it was 2650 nM. Besides, the inhibition of growth at 4 µg/mL in the assay with Trypanosoma cruzi [4] was 100%.
For `COc1ccc2c(c1OC)C(=O)c1occc1C2=O`, in the assay on Trypanosoma cruzi [4], the inhibition of growth at 4 µg/mL was found to be 25%.
Turning to `COc1ccc2c(c1)C(=O)c1oc(C(C)=O)cc1C2=O`, the IC50 with Trypanosoma cruzi [1] was found to be 570 nM; with Trypanosoma cruzi [2], 490 nM; in the assay with Trypanosoma cruzi [3], 530 nM. Also, in the assay on Trypanosoma cruzi [4], the inhibition of growth at 4 µg/mL came to 100%.
Turning to `COc1ccc(C(=O)O)c(Cc2ccco2)c1`, the inhibition of growth at 4 µg/mL in the assay on Trypanosoma cruzi [4] was determined as 0%.
Turning to `COc1ccc2c(OC(C)=O)c3cc(C(C)=O)oc3cc2c1`, the IC50 with Trypanosoma cruzi [1] was 2170 nM; in the assay on Trypanosoma cruzi [2] it was 1920 nM; with Trypanosoma cruzi [3], 1860 nM. In addition, in the assay on Trypanosoma cruzi [4], the inhibition of growth at 4 µg/mL worked out at 100%.
Regarding `COc1ccc2c(c1OC)C(=O)c1oc(C(C)O)cc1C2=O` (configuration not stated), the inhibition of growth at 4 µg/mL in the assay with Trypanosoma cruzi [4] was 22%.
Still for that read-out and setting: the result for `COc1ccc2c(c1)C(c1ccc(C(C)=O)o1)OC2=O` (configuration not stated) reads 17%; that for `COc1ccc2c(c1)C(c1ccco1)OC2=O` (configuration not stated), 18%.
On to `O=C1C(=O)c2ccoc2-c2ccccc21`, for which the values for the concentration for half-maximal inhibition (IC50) in the assay on Trypanosoma cruzi [1], in the assay on Trypanosoma cruzi [2] and with Trypanosoma cruzi [3] were 2800 nM, 3020 nM and 2550 nM, respectively. Further, the inhibition of growth at 4 µg/mL in the assay on Trypanosoma cruzi [4] was determined as 100%.
On to `COc1ccc2c(c1OC)C(=O)c1ccoc1C2=O`, for which, in the assay on Trypanosoma cruzi [4], the inhibition of growth at 4 µg/mL was 45%.
Regarding `COc1ccc2c(c1OC)C(=O)c1oc(C(C)=O)cc1C2=O`, the inhibition of growth at 4 µg/mL in the assay with Trypanosoma cruzi [4] worked out at 45%.
As for `COc1cccc2c1C(c1ccco1)OC2=O` (configuration not stated), the inhibition of growth at 4 µg/mL in the assay with Trypanosoma cruzi [4] was 19%.
Consider `O=C(Cn1ccnc1[N+](=O)[O-])NCc1ccccc1` [BENZNIDAZOLE], for which the values for the IC50 in the assay with Trypanosoma cruzi [1], in the assay on Trypanosoma cruzi [2] and in the assay on Trypanosoma cruzi [3] were 8970 nM, 8050 nM and 8950 nM, respectively. Besides, in the assay on Trypanosoma cruzi [4], the inhibition of growth at 4 µg/mL came to 100%.
On the same counts, the results for `CC1CS(=O)(=O)CCN1/N=C/c1ccc([N+](=O)[O-])o1` (configuration not stated) [NIFURTIMOX] are 3550 nM, 3290 nM, 3810 nM and 100%.
